Measured values as given in patent US6699836B2 (priority 1999, dated 2004).
In brackets after ≈: the same amount, converted by molar mass. Read-outs that look alike come from different tables or passages of the source.

Assays:
Test in all cases: MIC determination in BHI broth microdilution
Type in all cases: cell-based
S. aureus ATCC 33591 = system: S. aureus ATCC 33591
Procedure: (§1) In the Table below, MIC (minimum inhibitory concentration) values of certain compounds of the present invention are provided for the bacterial strains E. faecalis ATCC 29212; E. faecalis CL4877; E. faecium ATCC 49624; E. faecium CL4931; S. aures ATCC 29213; S. aureus ATCC 33591; and E. coli BAS 849. The MICs of the test compounds were determined using bacteria grown in brain heart infusion media (BHI) supplemented with 0.1% casamino acids. Logarithmically growing cells were diluted to approximately 5×10^5 CFU/ml and subjected to test compounds solubilized and serially diluted with DMSO. A 5% final DMSO concentration had no effect on cell viability or killing. After 18 hours at 37° C., the OD600 was determined by reading the ninety-six well microtiter plates on a microplate reader. For a given concentration, an MIC determination was made if: […]

E. coli BAS 849 = details: E. coli BAS849; BHI with 0.1% casamino acids, 18 hours at 37° C., OD600 ≧90% inhibition
Procedure: as §1

E. faecium CL4931 = system: E. faecium CL4931
Procedure: (§2) The MICs of the test compounds were determined using bacteria grown in brain heart infusion media (BHI) supplemented with 0.1% casamino acids. Logarithmically growing cells were diluted to approximately 5×10^5 CFU/ml and subjected to test compounds solubilized and serially diluted with DMSO. […] After 18 hours at 37° C., the OD600 was determined by reading the ninety-six well microtiter plates on a microplate reader. For a given concentration, an MIC determination was made if: […]

E. faecium ATCC 49624 = system: E. faecium ATCC 49624
Procedure: as §2

E. faecalis CL4877 = system: E. faecalis CL4877
Procedure: as §2

E. faecalis ATCC 29212 = system: E. faecalis ATCC 29212
Procedure: as §2

S. aureus ATCC29213 = system: S. aureus ATCC29213
Procedure: as §2

[1] = S. aureus ATCC33591, BHI with 0.1% casamino acids, 18 hours at 37° C., OD600 ≧90% inhibition
[2] = E. faecium CL4931, BHI with 0.1% casamino acids, 18 hours at 37° C., OD600 ≧90% inhibition
[3] = E. faecium ATCC49624, BHI with 0.1% casamino acids, 18 hours at 37° C., OD600 ≧90% inhibition
[4] = E. faecalis CL4877, BHI with 0.1% casamino acids, 18 hours at 37° C., OD600 ≧90% inhibition
[5] = E. faecalis ATCC29212, BHI with 0.1% casamino acids, 18 hours at 37° C., OD600 ≧90% inhibition
[6] = S. aureus ATCC29213, BHI with 0.1% casamino acids, 18 hours at 37° C., OD600 ≧90% inhibition
[7] = Staphylococcus aureus, ATCC33591, 18 h
[8] = Enterococcus faecium, CL4931, 18 h, read-out: MIC
[9] = Enterococcus faecium, ATCC49624, 18 h, read-out: MIC
[10] = Enterococcus faecalis, CL4877, 18 h, read-out: MIC
[11] = Enterococcus faecalis, ATCC29212, 18 h, read-out: MIC
[12] = Staphylococcus aureus, ATCC29213, 18 h, read-out: MIC
[13] = Enterococcus faecium, CL4931, 18 h
[14] = Enterococcus faecium, ATCC49624, 18 h
[15] = Enterococcus faecalis, CL4877, 18 h
[16] = Enterococcus faecalis, ATCC29212, 18 h
[17] = Staphylococcus aureus, ATCC29213, 18 h

Molecule	MIC (S. aureus ATCC 33591; [1]) [µg/mL]	MIC (E. coli BAS 849) [µg/mL]	MIC (E. faecium CL4931; [2]) [µg/mL]	MIC (E. faecium ATCC 49624; [3]) [µg/mL]	MIC (E. faecalis CL4877; [4]) [µg/mL]	MIC (E. faecalis ATCC 29212; [5]) [µg/mL]	MIC (S. aureus ATCC29213; [6]) [µg/mL]	MIC (S. aureus ATCC 33591; [7]) [µg/mL]	MIC (E. faecium CL4931; [8]) [µg/mL]	MIC (E. faecium ATCC 49624; [9]) [µg/mL]	MIC (E. faecalis CL4877; [10]) [µg/mL]	MIC (E. faecalis ATCC 29212; [11]) [µg/mL]	MIC (S. aureus ATCC29213; [12]) [µg/mL]	MIC (E. faecium CL4931; [13]) [µg/mL]	MIC (E. faecium ATCC 49624; [14]) [µg/mL]	MIC (E. faecalis CL4877; [15]) [µg/mL]	MIC (E. faecalis ATCC 29212; [16]) [µg/mL]	MIC (S. aureus ATCC29213; [17]) [µg/mL]
6′-amino-3,4- dichloro- benzyloxylben zyl- vancomycin putrescine amide [TS0216]	3.12	3.12	6.25	3.12	3.12	1.56	3.12											
6′-amino- chlorobiphenyl methyl- vancomycin putrescine amide [TS0217]	3.12	3.12	12.5	1.56	6.25	1.56	1.56											
6′-azido-3,4- dichloro- benzyloxyben zyl- vancomycin putrescine amide [TS0220]	3.1250		3.1250	0.7813	1.5625	1.5625	1.5625											
CN[C@H](CC(C)C)C(=O)N[C@H]1C(=O)N[C@@H](CC(N)=O)C(=O)N[C@H]2C(=O)N[C@H]3C(=O)N[C@H](C(=O)N[C@H](C(=O)O)c4cc(O)cc(O)c4-c4cc3ccc4O)[C@H](O)c3ccc(c(Cl)c3)Oc3cc2cc(c3O[C@@H]2O[C@H](CO)[C@@H](O)[C@H](O)[C@H]2O[C@H]2C[C@](C)(N)[C@H](O)[C@H](C)O2)Oc2ccc(cc2Cl)[C@H]1O [EXT0002, vancomycin, reference compound]	0.78 to 3.12	0.78 (≈ 0.538 µM)	> 25	0.25 to 0.39	> 25	1.56 to 3.12	1.56 (≈ 1.08 µM)											
CN[C@H](CC(C)C)C(=O)N[C@H]1C(=O)N[C@@H](CC(N)=O)C(=O)N[C@H]2C(=O)N[C@H]3C(=O)N[C@H](C(=O)N[C@@H](C(=O)NCCCCN)c4cc(O)cc(O)c4-c4cc3ccc4O)[C@H](O)c3ccc(c(Cl)c3)Oc3cc2cc(c3OC2OC(CO)C(O)C(O)C2OC2CC(C)(NCc3ccc(-c4ccc(Cl)cc4)cc3)C(O)C(C)O2)Oc2ccc(cc2Cl)[C@H]1O (stereo partly drawn) [TS0221, chlorobipheny lmethyl- vancomycin putrescine amide]								0.781 (≈ 0.454 µM)	6.25 (≈ 3.63 µM)	0.25 (≈ 0.145 µM)	12.5 (≈ 7.27 µM)	1.56 (≈ 0.908 µM)	1.56 (≈ 0.908 µM)					
CN[C@H](CC(C)C)C(=O)N[C@H]1C(=O)N[C@@H](CC(N)=O)C(=O)N[C@H]2C(=O)NC3C(=O)N[C@H](C(=O)N[C@@H](C(=O)NCCCCN)c4cc(O)cc(O)c4-c4cc3ccc4O)[C@H](O)c3ccc(c(Cl)c3)Oc3cc2cc(c3OC2OC(CN=[N+]=[N-])C(O)C(O)C2OC2CC(C)(NCc3ccc(-c4ccc(Cl)cc4)cc3)C(O)C(C)O2)Oc2ccc(cc2Cl)[C@H]1O (stereo partly drawn) [TS0222]								3.12 (≈ 1.79 µM)	3.12 (≈ 1.79 µM)	0.25 (≈ 0.143 µM)	3.12 (≈ 1.79 µM)	0.781 (≈ 0.448 µM)	1.56 (≈ 0.895 µM)					
CN[C@H](CC(C)C)C(=O)N[C@H]1C(=O)N[C@@H](CC(N)=O)C(=O)N[C@H]2C(=O)NC3C(=O)N[C@H](C(=O)N[C@@H](C(=O)NCCN)c4cc(O)cc(O)c4-c4cc3ccc4O)[C@H](O)c3ccc(c(Cl)c3)Oc3cc2cc(c3OC2OC(CN=[N+]=[N-])C(O)C(O)C2OC2CC(C)(NCc3ccc(OCc4ccc(Cl)c(Cl)c4)cc3)C(O)C(C)O2)Oc2ccc(cc2Cl)[C@H]1O (stereo partly drawn) [TS0256, 6′-azido-3,4-dichlorobenzyl oxylbenzyl-vancomycin 2-aminoethyl amide]								1.56 (≈ 0.876 µM)						6.25 (≈ 3.51 µM)	0.39 (≈ 0.219 µM)	1.56 (≈ 0.876 µM)	3.12 (≈ 1.75 µM)	1.56 (≈ 0.876 µM)
CN[C@H](CC(C)C)C(=O)N[C@H]1C(=O)N[C@@H](CC(N)=O)C(=O)N[C@H]2C(=O)NC3C(=O)N[C@H](C(=O)N[C@@H](C(=O)NCCN)c4cc(O)cc(O)c4-c4cc3ccc4O)[C@H](O)c3ccc(c(Cl)c3)Oc3cc2cc(c3OC2OC(CN)C(O)C(O)C2OC2CC(C)(NCc3ccc(OCc4ccc(Cl)c(Cl)c4)cc3)C(O)C(C)O2)Oc2ccc(cc2Cl)[C@H]1O (stereo partly drawn) [TS0258, 6′-amino-3,4-dichlorobenzyl oxylbenzyl-vancomycin 2-aminoethyl amide]								12.5 (≈ 7.12 µM)						25 (≈ 14.2 µM)	3.12 (≈ 1.78 µM)	25 (≈ 14.2 µM)	12.5 (≈ 7.12 µM)	25 (≈ 14.2 µM)
N-methyl, N- chlorobiphenyl methyl-D- leucyl-6′-azido- chlorobiphenyl methyl vancomycin putrescine amide [TS0259]	1.56		6.25	1.56	12.5	3.12	3.12											
